# From patent publication US20240325396A1, “METHODS FOR TREATING CANCER” (Allarity Therapeutics, Inc., priority 2023, published 2024)
# Like-named read-outs stand apart in the source and are kept apart here.
# Tests used:
# [1] = cited from earlier work
# [2] = tested on: BRCA1 mutant human triple negative breast cancer cell line MDA-MB-436; assay: Cell proliferation assay, MDA-MB-436; settings: MDA-MB-436, 192 h, read-out: IC50, inhibition of cell proliferation
# [3] = Safety: Phase 1 study with preliminary Phase 2 metastatic breast cancer data; type: in vivo
# Method: Phototoxicity was in the Danish study primarily seen in 2 subjects treated during the hot summer period in 2018.
# Anemia was registered in only few subjects at doses of 400 mg and above 3/42 (7%) (all grade 2) and 4/42 had increased liver enzymes (grade 2: 1/42 (2.6%) and grade 3: 3/42 (7%)).
# Gastrointestinal side-effects were registered in some subjects: nausea 14/42 (33%), vomiting 7/42 (16%) and diarrhea 13/42 ([…]) all grade 1-2 apart from two cases of grade 3 diarrhea.
# [4] = tested on: P-gp; assay: in vitro; settings: mouse
# [5] = tested on: breast cancer; assay: Phase 2 breast cancer study, response; type: in vivo, human; settings: twelve subjects evaluable for response
# From the text: A breast cancer study was initiated in June 2018 and discontinued for futility after enrollment of 16 subjects. Twelve subjects were evaluable for response: Nine had PD and three subjects had SD.
# [6] = published Phase I trial (Plummer, Br J Cancer 2020); cited from earlier work
# [7] = tested on: PARP activity
# [8] = tested on: PARP activity (PAR levels); assay: Phase 1 study, PARP inhibition by change in PAR levels; type: in vivo, human
# [9] = tested on: human acute myeloid leukemia MV-4-11-luc2/AcGFP cell line; assay: Cell proliferation assay, MV-4-11-luc2/AcGFP; settings: 144 h, read-out: IC50, inhibition of cell proliferation
# [10] = tested on: Advanced Solid Tumors; assay: Phase 1 study E7449-E044-101, tumor response (RECIST 1.1); type: in vivo, human
# Method: The overall objective response rate (ORR; CR+PR) was 4.9% (n=2) with 1 subject each in the 600 mg (MTD) and 800 mg dose groups with a BOR of PR.
# [11] = tested on: SR human B cell lymphoma cell line; assay: Cell proliferation assay, SR; settings: 192 h, read-out: IC50, inhibition of cell proliferation
# [12] = Phase 2 advanced ovarian cancer study, adverse events and dose modifications; type: in vivo, human
# [13] = Myelotoxicity, ovarian cancer patients pooled with 14 metastatic breast cancer patients; type: in vivo, human; settings: BID + QD (N = 42)
# Method: Because myelotoxicity appeared to be a rare event for 2×-121, 14 patients with metastatic breast cancer that received 600 mg QD in a phase II trial were included in Table 10.
# [14] = tested on: human acute myeloid leukemia (AML) MV-4-11-luc2/AcGFP; assay: AML MV-4-11-luc2/AcGFP survival model; type: in vivo
# [15] = tested on: BRCA1 mutant MDA-MB-436 human breast cancer subcutaneous xenograft; assay: MDA-MB-436 subcutaneous xenograft model, anti-tumor activity; type: in vivo; settings: 30 and 100 mg/kg
# [16] = tested on: CA125; assay: Phase 2 advanced ovarian cancer study, CA125 test response (GCIG); type: in vivo, human
# Method: Only patients with a baseline of CA125 twice the upper normal limit of 70 unit/ml who received at least one dose were included in IAP. Only patients who had completed 2 cycles were determined to be evaluable for CA125 response. Two QD patients and four BID patients were below 70 units/ml. The CA125 test was confirmed with a second measurement that was lower than or within 10% of the previous measurement.
# [17] = tested on: advanced ovarian cancer; assay: Phase 2 advanced ovarian cancer study QD vs BID, tumor response (RECIST 1.1), PFS; type: in vivo, human
# From the text: Patient population: Histologically or cytologically documented epithelial ovarian carcinoma including high-grade serous, endometrioid, clear cell, carcinosarcoma, undifferentiated, and mixed histological subtypes (independent of BRCA1 and homologous recombination (HR) deficiency (HRD) status) and with 2 or more previous chemotherapies/antibody therapies including treatment with other PARPi for advanced, refractory, or recurrent ovarian cancer.
# The Interim Analysis Population (IAP) and safety population consisted of 28 patients (10 BID and 18 QD). Five patients received a first dose but dropped out before any tumor evaluation.
# FIG. 4A and FIG. 4B show the best change in tumor diameter from baseline in the IAP QD population (FIG. 4A) and the IAP BID population (FIG. 4B). The mean of best change in tumor diameter from baseline in the QD population (FIG. 4A) was 4% tumor growth. The CR in the BID pollution (FIG. 4B) was unconfirmed, and consisted of target lymph node lesions that all turned normal. This CR patient also had CA125 CR unconfirmed status. The mean of best change in tumor diameter from baseline in the BID population (FIG. 4B) was 29% tumor reduction. The median PFS was not reached in the BID population, and was 50 days (1.6 months) in the QD population.
# [18] = Phase 1 study, pharmacokinetics in plasma and urine; type: in vivo, human
# From the text: Food intake vs fasting comparisons were made after administration of the Cycle 1 Day 7 dose (FIG. 2A) and after the Cycle 1 Day 15 dose (FIG. 2B).
compound,measurement,setting,value
NC(=O)c1cccc2cn(-c3ccc([C@@H]4CCCNC4)cc3)nc12 [niraparib],Adverse events Grade 5,"[1]; 300 mg QD (N = 463), QUADRA trial",2%
same,Dose modifications: Discontinuation,[1]; 300 mg QD (N = 463),21%
same,Dose modifications: Interruption,[1]; 300 mg QD (N = 463),62%
same,Dose modifications: Reduction,[1]; 300 mg QD (N = 463),47%
same,Treatment-related adverse events Grade 1,[1]; 300 mg QD (N = 463),90%
same,Treatment-related adverse events Grade 2,[1]; 300 mg QD (N = 463),56%
same,Treatment-related adverse events Grade 3,[1]; 300 mg QD (N = 463),20%
same,Treatment-related adverse events Grade 4,[1]; 300 mg QD (N = 463),<1%
same,Anemia Grade 1-4,[1]; QD (N = 463),51%
same,Anemia Grade 3-4,[1]; QD (N = 463),27%
same,Neutropenia Grade 1-4,[1]; QD (N = 463),20%
same,Neutropenia Grade 3-4,[1]; QD (N = 463),13%
same,Thrombocytopenia Grade 1-4,[1]; QD (N = 463),52%
same,Thrombocytopenia Grade 3-4,[1]; QD (N = 463),28%
"O=c1[nH]nc2c3c(cccc13)N=C(CN1Cc3ccccc3C1)N2 [stenoparib, 8-(isoindolin-2-ylmethyl)-2,9-dihydro-3H-pyridazino [3,4,5-de] quinazolin-3-one]",IC50,[2],0.219 µM
same,MTD,"[3]; administered orally once daily, phase I study",600 mg
same,diarrhea,"[3]; human, in vivo",25%
same,nausea,"[3]; human, in vivo",33%
same,vomiting,"[3]; human, in vivo",16%
same,DLT,[3]; in vivo,limited to fatigue and one case of anaphylactic reaction
same,cases of grade 3 diarrhea,[3]; in vivo,two
same,hematotoxicity or hepatotoxicity,[3]; in vivo,no significant hematotoxicity or hepatotoxicity was observed
same,IC50,[4],1.39 µM
same,IC50,[4]; with verapamil (P-gp antagonist; concentration not stated),1.82 µM
same,subjects with PD,[5],Nine
same,subjects with SD,[5],three
same,myelotoxicity among adverse events,[6],no myelotoxicity among adverse events found in more than 5% of patients
same,PARP activity in tumor tissue,"[7]; single dose 30 mg/kg, 12 hours post-dose",low levels of PARP activity were observed
same,PARP activity in tumor tissue,"[7]; single dose 30 or 100 mg/kg, 1 and 6 hours post-dose",completely inhibited
same,PARP activity in tumor tissue,"[7]; single dose 30 or 100 mg/kg, 24 hours post-dose",restored to control levels
same,inhibition in PAR levels from baseline,"[8]; 600 mg (MTD), food effect cohort, 2 to 4 hours post-dose",up to 90%
same,decrease in PAR levels,[8]; 24 hours post-dose,≥ 70%
same,IC50,[9],1.1 µM
same,BOR of stable disease,[10]; 13 subjects,31.7%
same,subjects with best overall response (BOR) of CR,"[10]; 35 subjects assessed, investigator assessment, once daily dosing",None
same,overall objective response rate (ORR; CR+PR),"[10]; n=2, one PR each at 600 mg and 800 mg",4.9%
same,IC50,[11],1.05 µM
same,Dose modifications: Discontinuation,[12]; 600 mg BID (N = 9),0%
same,Dose modifications: Interruption,[12]; 600 mg BID (N = 9),50%
same,Dose modifications: Reduction,[12]; 600 mg BID (N = 9),40%
same,Adverse events Grade 1-4,[12]; 600 mg BID (N = 10),70%
same,Adverse events Grade 3-4,[12]; 600 mg BID (N = 10),20%
same,Adverse events Grade 5,[12]; 600 mg BID (N = 10),0%
same,Treatment-related adverse events Grade 1,[12]; 600 mg BID (N = 10),70%
same,Treatment-related adverse events Grade 2,[12]; 600 mg BID (N = 10),60%
same,Treatment-related adverse events Grade 3,[12]; 600 mg BID (N = 10),20%
same,Treatment-related adverse events Grade 4,[12]; 600 mg BID (N = 10),0%
same,Treatment-related adverse events Grade 5,[12]; 600 mg BID (N = 10),0%
same,Adverse events Grade 1-4,[12]; 600 mg QD (N = 18),100%
same,Adverse events Grade 3-4,[12]; 600 mg QD (N = 18),61%
same,Adverse events Grade 5,[12]; 600 mg QD (N = 18),6%
same,Dose modifications: Discontinuation,[12]; 600 mg QD (N = 18),11%
same,Dose modifications: Interruption,[12]; 600 mg QD (N = 18),83%
same,Dose modifications: Reduction,[12]; 600 mg QD (N = 18),28%
same,Treatment-related adverse events Grade 1,[12]; 600 mg QD (N = 18),94%
same,Treatment-related adverse events Grade 2,[12]; 600 mg QD (N = 18),83%
same,Treatment-related adverse events Grade 3,[12]; 600 mg QD (N = 18),33%
same,Treatment-related adverse events Grade 4,[12]; 600 mg QD (N = 18),0%
same,Treatment-related adverse events Grade 5,[12]; 600 mg QD (N = 18),0%
same,Anemia Grade 1-4,[13],21%
same,Anemia Grade 3-4,[13],7%
same,Neutropenia Grade 1-4,[13],2%
same,Neutropenia Grade 3-4,[13],0%
same,Thrombocytopenia Grade 1-4,[13],0%
same,Thrombocytopenia Grade 3-4,[13],0%
same,disease burden as measured by luciferase signal,[14]; 100 mg/kg,Reduced disease burden
same,survival benefit,[14]; 100 mg/kg for 28 days,statistically significant survival benefit
same,"tolerability, body weight loss","[14]; 10, 30 or 100 mg/kg",well-tolerated without any significant body weight loss
same,disease burden by luciferase signal and survival benefit,[14]; 10 and 30 mg/kg,No statistically significant reduction in disease burden by luciferase signal or survival benefit
same,"tolerability, body weight loss",[15]; 28 days,no significant body weight loss
same,tumor growth inhibition,[15]; consecutive 28-day administration,statistically significant tumor growth inhibition
same,"CA125 response PR, patients n (%)","[16]; BID, N = 6 IAP",0 (0%)
same,"CA125 response SD, patients n (%)","[16]; BID, N = 6 IAP",1 (17%)
same,"CA125 response CR, patients n (%)","[16]; BID, N = 6 IAP, unconfirmed",1 (17%) unconfirmed
same,"CA125 response CR, patients n (%)","[16]; QD, N = 16 IAP",0 (0%)
same,"CA125 response PR, patients n (%)","[16]; QD, N = 16 IAP",0 (0%)
same,"CA125 response SD, patients n (%)","[16]; QD, N = 16 IAP",3 (19%)
same,"Tumor response CR, patients n (%)","[17]; 600 mg QD, N = 18 IAP",0 (0%)
same,"Tumor response PD, patients n (%)","[17]; 600 mg QD, N = 18 IAP",9 (50%)
same,"Tumor response PR, patients n (%)","[17]; 600 mg QD, N = 18 IAP",0 (0%)
same,"Tumor response SD > 16w, patients n (%)","[17]; 600 mg QD, N = 18 IAP",1 (6%)
same,"Tumor response SD, patients n (%)","[17]; 600 mg QD, N = 18 IAP",3 (17%)
same,"Tumor response CR, patients n (%)","[17]; BID 200 mg morning + 400 mg evening, N = 10 IAP, unconfirmed",1 (10%) unconfirmed
same,"mean of best change in tumor diameter from baseline, tumor reduction",[17]; BID population,29%
same,median PFS,[17]; BID population,not reached
same,"Tumor response PD, patients n (%)","[17]; BID, N = 10 IAP",0 (0%)
same,"Tumor response PR, patients n (%)","[17]; BID, N = 10 IAP",0 (0%)
same,"Tumor response SD > 16w, patients n (%)","[17]; BID, N = 10 IAP",1 (10%)
same,"Tumor response SD, patients n (%)","[17]; BID, N = 10 IAP",3 (30%)
same,"mean of best change in tumor diameter from baseline, tumor growth",[17]; QD population,4%
same,increase of AUC by food,"[18]; 600 mg dose, plasma",10%
same,reduction of Cmax by food,"[18]; 600 mg dose, plasma",60%
same,accumulation based on AUC,[18]; Day -2 vs Day 15 administration,minimal accumulation
same,Tmax,"[18]; human, plasma, across subjects and dose groups, oral",0.5 to 4 h
same,administered dose recovered in urine,[18]; in vivo,less than 1.5%
same,half-life,"[18]; plasma, human subjects, oral, read-out: elimination half-life (converted)",~8 h
same,dose proportionality of absorption in plasma,[18]; single or multiple oral doses between 50 mg and 800 mg,proportional absorption
